In the supplement of paper PMC10307832:

Columns and labels:
Assay in all cases: relative viability (nuclei count vs DMSO), 5 days (fraction); higher = more cells survive
ABC-1 = tested on: ABC-1
Outline: (§1)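 Lung cancer cell lines were pin-tool dosed in 1536-well plates on the day after seeding, with either a lone drug or a fixed anchor-drug dose plus five library-drug doses (not always all listed) in √10 steps. Nuclei were counted on 4× images after 5 days. Relative viability is the ratio of treated-well to vehicle-well nuclei counts, with each value a median of duplicate plates.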

ChaGo-K-1 = tested on: ChaGo-K-1
Outline: as §1

HCC-78 = tested on: HCC-78
Outline: as §1

HOP-62 = tested on: HOP-62
Outline: as §1

LCLC-97TM1 = tested on: LCLC-97TM1
Outline: as §1

LOU-NH91 = tested on: LOU-NH91
Outline: as §1

NCI-H1355 = tested on: NCI-H1355
Outline: as §1

NCI-H1437 = tested on: NCI-H1437
Outline: as §1

NCI-H1755 = tested on: NCI-H1755
Outline: as §1

NCI-H1792 = tested on: NCI-H1792
Outline: as §1

NCI-H2009 = tested on: NCI-H2009
Outline: as §1

NCI-H2023 = tested on: NCI-H2023
Outline: as §1

NCI-H2085 = tested on: NCI-H2085
Outline: as §1

NCI-H2170 = tested on: NCI-H2170
Outline: as §1

NCI-H23 = tested on: NCI-H23
Outline: as §1

NCI-H2405 = tested on: NCI-H2405
Outline: as §1

NCI-H322M = tested on: NCI-H322M
Outline: as §1

NCI-H441 = tested on: NCI-H441
Outline: as §1

NCI-H650 = tested on: NCI-H650
Outline: as §1

NCI-H727 = tested on: NCI-H727
Outline: as §1

RERF-LC-KJ = tested on: RERF-LC-KJ
Outline: as §1

SK-MES-1 = tested on: SK-MES-1
Outline: as §1

UMC-11 = tested on: UMC-11
Outline: as §1

Cc1cnc(-c2cnc(NCCNc3ccc(C#N)cn3)nc2-c2ccc(Cl)cc2Cl)[nH]1 + O=C(c1cc(Cc2n[nH]c(=O)c3ccccc23)ccc1F)N1CCN(C(=O)C2CC2)CC1 [Olaparib] (partner 8 µM)
relative viability (ABC-1; first compound 0.08 µM): 0.788 | relative viability (ABC-1; first compound 0.253 µM): 0.834 | relative viability (ABC-1; first compound 0.8 µM): 0.78 | relative viability (ABC-1; first compound 2.53 µM): 0.763 | relative viability (ChaGo-K-1; first compound 0.08 µM): 0.406 | relative viability (ChaGo-K-1; first compound 0.253 µM): 0.361 | relative viability (ChaGo-K-1; first compound 0.8 µM): 0.362 | relative viability (ChaGo-K-1; first compound 2.53 µM): 0.322 | relative viability (HCC-78; first compound 0.08 µM): 0.865 | relative viability (HCC-78; first compound 0.253 µM): 0.588 | relative viability (HCC-78; first compound 0.8 µM): 0.737 | relative viability (HCC-78; first compound 2.53 µM): 0.834 | relative viability (HOP-62; first compound 0.08 µM): 0.354 | relative viability (HOP-62; first compound 0.253 µM): 0.362 | relative viability (HOP-62; first compound 0.8 µM): 0.502 | relative viability (HOP-62; first compound 2.53 µM): 0.324 | relative viability (LCLC-97TM1; first compound 0.08 µM): 0.379 | relative viability (LCLC-97TM1; first compound 0.253 µM): 0.36 | relative viability (LCLC-97TM1; first compound 0.8 µM): 0.417 | relative viability (LCLC-97TM1; first compound 2.53 µM): 0.316 | relative viability (LOU-NH91; first compound 0.08 µM): 0.94 | relative viability (LOU-NH91; first compound 0.253 µM): 0.868 | relative viability (LOU-NH91; first compound 0.8 µM): 0.962 | relative viability (LOU-NH91; first compound 2.53 µM): 0.877 | relative viability (NCI-H1355; first compound 0.08 µM): 0.793 | relative viability (NCI-H1355; first compound 0.253 µM): 0.648 | relative viability (NCI-H1355; first compound 0.8 µM): 0.749 | relative viability (NCI-H1355; first compound 2.53 µM): 0.716 | relative viability (NCI-H1437; first compound 0.08 µM): 0.605 | relative viability (NCI-H1437; first compound 0.253 µM): 0.606 | relative viability (NCI-H1437; first compound 0.8 µM): 0.596 | relative viability (NCI-H1437; first compound 2.53 µM): 0.598 | relative viability (NCI-H1755; first compound 0.08 µM): 0.941 | relative viability (NCI-H1755; first compound 0.253 µM): 0.819 | relative viability (NCI-H1755; first compound 0.8 µM): 0.804 | relative viability (NCI-H1755; first compound 2.53 µM): 0.869 | relative viability (NCI-H1792; first compound 0.08 µM): 0.377 | relative viability (NCI-H1792; first compound 0.253 µM): 0.357 | relative viability (NCI-H1792; first compound 0.8 µM): 0.345 | relative viability (NCI-H1792; first compound 2.53 µM): 0.397 | relative viability (NCI-H2009; first compound 0.08 µM): 0.746 | relative viability (NCI-H2009; first compound 0.253 µM): 0.661 | relative viability (NCI-H2009; first compound 0.8 µM): 0.697 | relative viability (NCI-H2009; first compound 2.53 µM): 0.605 | relative viability (NCI-H2023; first compound 0.08 µM): 0.502 | relative viability (NCI-H2023; first compound 0.253 µM): 0.51 | relative viability (NCI-H2023; first compound 0.8 µM): 0.439 | relative viability (NCI-H2023; first compound 2.53 µM): 0.36 | relative viability (NCI-H2085; first compound 0.08 µM): 0.804 | relative viability (NCI-H2085; first compound 0.253 µM): 0.792 | relative viability (NCI-H2085; first compound 0.8 µM): 0.711 | relative viability (NCI-H2085; first compound 2.53 µM): 0.79 | relative viability (NCI-H2170; first compound 0.08 µM): 0.601 | relative viability (NCI-H2170; first compound 0.8 µM): 0.518 | relative viability (NCI-H2170; first compound 2.53 µM): 0.519 | relative viability (NCI-H23; first compound 0.08 µM): 0.316 | relative viability (NCI-H23; first compound 0.253 µM): 0.297 | relative viability (NCI-H23; first compound 0.8 µM): 0.303 | relative viability (NCI-H23; first compound 2.53 µM): 0.367 | relative viability (NCI-H2405; first compound 0.08 µM): 0.882 | relative viability (NCI-H2405; first compound 0.253 µM): 0.771 | relative viability (NCI-H2405; first compound 0.8 µM): 0.88 | relative viability (NCI-H2405; first compound 2.53 µM): 0.661 | relative viability (NCI-H322M; first compound 0.08 µM): 0.768 | relative viability (NCI-H322M; first compound 0.253 µM): 0.733 | relative viability (NCI-H322M; first compound 0.8 µM): 0.638 | relative viability (NCI-H322M; first compound 2.53 µM): 0.637 | relative viability (NCI-H441; first compound 0.08 µM): 0.568 | relative viability (NCI-H441; first compound 0.8 µM): 0.536 | relative viability (NCI-H441; first compound 2.53 µM): 0.387 | relative viability (NCI-H650; first compound 0.08 µM): 0.41 | relative viability (NCI-H650; first compound 0.253 µM): 0.36 | relative viability (NCI-H650; first compound 0.8 µM): 0.479 | relative viability (NCI-H650; first compound 2.53 µM): 0.393 | relative viability (NCI-H727; first compound 0.08 µM): 0.69 | relative viability (NCI-H727; first compound 0.253 µM): 0.768 | relative viability (NCI-H727; first compound 0.8 µM): 0.711 | relative viability (NCI-H727; first compound 2.53 µM): 0.735 | relative viability (RERF-LC-KJ; first compound 0.08 µM): 0.902 | relative viability (RERF-LC-KJ; first compound 0.253 µM): 0.65 | relative viability (RERF-LC-KJ; first compound 0.8 µM): 0.839 | relative viability (RERF-LC-KJ; first compound 2.53 µM): 0.858 | relative viability (SK-MES-1; first compound 0.08 µM): 0.734 | relative viability (SK-MES-1; first compound 0.253 µM): 0.704 | relative viability (SK-MES-1; first compound 0.8 µM): 0.738 | relative viability (SK-MES-1; first compound 2.53 µM): 0.762 | relative viability (UMC-11; first compound 0.08 µM): 0.413 | relative viability (UMC-11; first compound 0.253 µM): 0.997 | relative viability (UMC-11; first compound 0.8 µM): 0.343 | relative viability (UMC-11; first compound 2.53 µM): 0.352
